From the supplement of paper PMC10307832

Legend:
Experiment in all cases: relative viability (nuclei count vs DMSO), 5 days (fraction); higher = more cells survive
[1] = compound: CC[C@H](Nc1ncnc2[nH]cnc12)c1nc2cccc(F)c2c(=O)n1-c1ccccc1 [Idelalisib] + CS(=O)(=O)CCNCc1ccc(-c2ccc3ncnc(Nc4ccc(OCc5cccc(F)c5)c(Cl)c4)c3c2)o1 [Lapatinib] (partner 2 µM)
Outline: (§1)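 Lung cancer cell lines were seeded in 1536-well plates and dosed by pin tool the next day, with either a single drug or a fixed anchor-drug dose combined with five library-drug doses (not always all listed) spaced in √10 steps. Five days later, one step fixed the cells and stained their nuclei (final 0.05% Triton X-100, 1% formaldehyde, 1 ug/ml Hoechst), and nuclei were counted on 4× images. Relative viability is the nuclei count in treated wells divided by the count in vehicle wells, and each value is the median of duplicate plates.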

[2] = compound: CC[C@H](Nc1ncnc2[nH]cnc12)c1nc2cccc(F)c2c(=O)n1-c1ccccc1 [Idelalisib] + O=C(c1cc(Cc2n[nH]c(=O)c3ccccc23)ccc1F)N1CCN(C(=O)C2CC2)CC1 [Olaparib] (partner 8 µM)
Outline: as §1

[3] = compound: Nc1nc2[nH]cc(CCc3ccc(C(=O)N[C@@H](CCC(=O)O)C(=O)O)cc3)c2c(=O)[nH]1 [Pemetrexed] + CCNC(=O)c1noc(-c2cc(C(C)C)c(O)cc2O)c1-c1ccc(CN2CCOCC2)cc1 [Luminespib] (partner 0.01 µM)
Outline: as §1

[4] = compound: Nc1nc2[nH]cc(CCc3ccc(C(=O)N[C@@H](CCC(=O)O)C(=O)O)cc3)c2c(=O)[nH]1 [Pemetrexed] + Cc1cc(Nc2cc(N3CCN(C)CC3)nc(Sc3ccc(NC(=O)C4CC4)cc3)n2)n[nH]1 [Tozasertib] (partner 0.1 µM)
Outline: as §1

| Cell Line | relative viability ([1]; first compound 0.04 µM) | relative viability ([1]; first compound 0.1265 µM) | relative viability ([1]; first compound 0.4 µM) | relative viability ([1]; first compound 1.265 µM) | relative viability ([1]; first compound 4 µM) | relative viability ([2]; first compound 0.04 µM) | relative viability ([2]; first compound 0.1265 µM) | relative viability ([2]; first compound 0.4 µM) | relative viability ([2]; first compound 1.265 µM) | relative viability ([2]; first compound 4 µM) | relative viability ([3]; first compound 0.002 µM) | relative viability ([3]; first compound 0.006325 µM) | relative viability ([3]; first compound 0.02 µM) | relative viability ([3]; first compound 0.06325 µM) | relative viability ([3]; first compound 0.2 µM) | relative viability ([4]; first compound 0.002 µM) | relative viability ([4]; first compound 0.006325 µM) | relative viability ([4]; first compound 0.02 µM) | relative viability ([4]; first compound 0.06325 µM) | relative viability ([4]; first compound 0.2 µM) |
| --- | --- | --- | --- | --- | --- | --- | --- | --- | --- | --- | --- | --- | --- | --- | --- | --- | --- | --- | --- | --- |
| NCI-H1915 | 1.06 | 1 | 0.96 | 1.11 | 0.922 | 0.252 | 0.241 | 0.276 | 0.264 | 0.27 | 0.818 | 0.857 | 0.84 | 0.836 | 0.781 | 0.403 | 0.439 | 0.45 | 0.417 | 0.425 |
| NCI-H1944 | 0.969 | 0.857 | 0.637 | 0.826 | 0.668 | 0.427 | 0.395 | 0.388 | 0.394 | 0.406 |  | 0.752 | 0.72 | 0.734 | 0.69 |  | 0.306 | 0.269 | 0.241 | 0.242 |
| NCI-H1975 | 0.966 | 0.99 | 0.836 | 0.889 | 0.61 | 0.787 | 0.835 | 0.741 | 0.778 | 0.615 | 0.169 | 0.295 | 0.177 | 0.195 | 0.169 | 0.756 | 0.752 | 0.768 | 0.704 | 0.297 |
| NCI-H1993 | 0.816 | 0.887 | 0.76 | 0.802 | 0.84 | 1.16 | 1.07 | 0.866 | 0.915 | 0.791 | 0.432 | 0.623 | 0.868 | 0.913 | 0.41 | 0.68 | 0.46 | 0.523 | 0.615 | 0.506 |
| NCI-H2009 | 0.944 | 1.04 | 0.883 | 0.572 | 0.93 | 0.639 | 0.712 | 0.672 | 0.74 | 0.516 | 0.94 | 0.995 | 1.04 | 0.991 | 1.03 | 0.707 | 0.697 | 0.855 | 0.71 | 0.694 |
| NCI-H2023 | 0.837 | 1.01 | 0.525 | 0.775 | 0.724 | 0.463 | 0.495 | 0.542 | 0.436 | 0.472 | 0.717 | 0.656 | 0.932 | 0.483 | 0.227 | 0.245 | 0.338 | 0.364 | 0.379 | 0.223 |
| NCI-H2085 | 0.744 | 0.757 | 0.687 | 0.723 | 0.503 | 0.642 | 0.743 | 0.767 | 0.741 | 0.677 | 0.386 | 0.304 | 0.449 | 0.414 | 0.427 | 0.735 | 0.811 | 0.882 | 0.849 | 0.784 |
